Measured values as given in patent US8227613B2, “Heteroaryl carboxamide derivatives” (Hoffmann-La Roche Inc., priority 2008, dated 2012).

What follows are compounds tested against T1, human chemokine receptor 2 isoform B (CCR2B) (Homo sapiens, UniProt P41597) (assay: Calcium mobilization assay (FLIPR, MCP-1 stimulated CHOK1-CCR2B-A5 cells)). Settings: 20 nM MCP-1, antagonist activity, read-out: IC50 (inhibitor concentration required for 50% inhibition of specific calcium increases).
T1 construct: host or cells: CHO-K1 (CHOK1-CCR2B-A5)
T1 sequence (P41597 1-360 isoform P41597-2): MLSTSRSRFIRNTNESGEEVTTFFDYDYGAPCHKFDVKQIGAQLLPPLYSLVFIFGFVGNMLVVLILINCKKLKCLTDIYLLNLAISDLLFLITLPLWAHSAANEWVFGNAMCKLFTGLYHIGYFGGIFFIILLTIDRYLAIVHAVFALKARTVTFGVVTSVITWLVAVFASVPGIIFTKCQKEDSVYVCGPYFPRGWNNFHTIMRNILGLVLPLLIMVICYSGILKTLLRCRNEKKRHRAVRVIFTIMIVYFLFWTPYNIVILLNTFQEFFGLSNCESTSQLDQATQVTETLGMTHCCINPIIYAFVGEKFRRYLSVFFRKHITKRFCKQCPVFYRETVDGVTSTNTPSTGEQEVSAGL
Type: cell-based
Protocol: Calcium Mobilization Assay
CHOK1-CCR2B-A5 cells (from Euroscreen) stably overexpressing the human chemokine receptor 2 isoform B were cultured in Nutrient Hams F12 medium supplemented with 5% FBS, 100 U/ml penicillin, 100 μg/ml streptomycin, 400 μg/ml G418 and 5 μg/ml puromycin.
For the assay cells were grown overnight in 384-well black clear flat bottom polystyrene plates (Costar) at 37° C. at 5% CO2. After washing with DMEM, 20 mM Hepes, 2.5 mM probenecid, 0.1% BSA (DMEM assay buffer) cells were loaded with 4 μM Fluo-4 in the same DMEM assay buffer for 2 hours at 30° C. Excess dye was removed and cells were washed with DMEM assay buffer. 384-well compound plates were prepared with DMEM assay buffer/0.5% DMSO with or without various concentrations of test compounds. Usually compounds were tested for agonist and antagonist activity.
Test compounds were added to the assay plate and agonist activity was monitored as fluorescence for 80 seconds with a FLIPR (488 nm excitation; 510-570 nm emission; Molecular Devices). After 20-30 min. of incubation at 30° C., 20 nM MCP-1 (R&D; Roche) was added and fluorescence was monitored again for 80 seconds. Increases in intracellular calcium are reported as maximum fluorescence after agonist exposure minus basal fluorescence before exposure. Antagonist activity is indicated as inhibitor concentration required for 50% inhibition of specific calcium increases.

Row | Compound | IC50 [nM]
1 | Cc1cc(-c2cccc(C(F)(F)F)c2)c[n+]([O-])c1C(=O)N1CCC(N2CCCC2)CC1 [Example 2, [3-Methyl-1-oxy-5-(3-trifluoromethyl-phenyl)-pyridin-2-yl]-(4-pyrrolidin-1-yl-piperidin-1-yl)-methanone] | 23
2 | Cc1cc(-c2cccc(C(F)(F)F)c2)c(NCCO)nc1C(=O)N1CCC(N2CCCC2)CC1 [Example 27, [6-(2-Hydroxy-ethylamino)-3-methyl-5-(3-trifluoromethyl-phenyl)-pyridin-2-yl]-(4-pyrrolidin-1-yl-piperidin-1-yl)-methanone] | 41
3 | Cc1cc(-c2cc(F)cc(C(F)(F)F)c2)cnc1C(=O)N1CCC(N2CCCC2)CC1 [Example 37, [5-(3-Fluoro-5-trifluoromethyl-phenyl)-3-methyl-pyridin-2-yl]-(4-pyrrolidin-1-yl-piperidin-1-yl)-methanone] | 36
4 | COc1ccc(CNc2nc(C(=O)N3CCC(N4CCCC4)CC3)c(C)cc2-c2cccc(C(F)(F)F)c2)cc1 [Example 6, [6-(4-Methoxy-benzylamino)-3-methyl-5-(3-trifluoromethyl-phenyl)-pyridin-2-yl]-(4-pyrrolidin-1-yl-piperidin-1-yl)-methanone] | 130
5 | Cc1cc(-c2cccc(C(F)(F)F)c2)c(Oc2cccnc2)nc1C(=O)N1CCC(N2CCCC2)CC1 [Example 62, [3-Methyl-6-(pyridin-3-yloxy)-5-(3-trifluoromethyl-phenyl)-pyridin-2-yl]-(4-pyrrolidin-1-yl-piperidin-1-yl)-methanone] | 69
6 | COc1nc(C(=O)N2CCC(N3CCCC3)CC2)c(C)cc1-c1cccc(C(F)(F)F)c1 [Example 8, [6-Methoxy-3-methyl-5-(3-trifluoromethyl-phenyl)-pyridin-2-yl]-(4-pyrrolidin-1-yl-piperidin-1-yl)-methanone] | 65
7 | Cc1cc(-c2ccc(F)c(C(F)(F)F)c2)cnc1C(=O)N1CCC(N2CCCC2)CC1 [Example 34, [5-(4-Fluoro-3-trifluoromethyl-phenyl)-3-methyl-pyridin-2-yl]-(4-pyrrolidin-1-yl-piperidin-1-yl)-methanone] | 59
8 | Cc1cc(-c2cccc(C(F)(F)F)c2)c(CO)nc1C(=O)N1CCC(N2CCCC2)CC1 [Example 46, [6-Hydroxymethyl-3-methyl-5-(3-trifluoromethyl-phenyl)-pyridin-2-yl]-(4-pyrrolidin-1-yl-piperidin-1-yl)-methanone] | 12
9 | COc1ncc(-c2nc(C(=O)N3CCC(N4CCCC4)CC3)c(C)cc2-c2cccc(C(F)(F)F)c2)cn1 [Example 44, [6-(2-Methoxy-pyrimidin-5-yl)-3-methyl-5-(3-trifluoromethyl-phenyl)-pyridin-2-yl]-(4-pyrrolidin-1-yl-piperidin-1-yl)-methanone] | 12
10 | O=C(c1nc(O)c(-c2cccc(C(F)(F)F)c2)cc1Cl)N1CCC(N2CCCC2)CC1 [Example 23, [3-Chloro-6-hydroxy-5-(3-trifluoromethyl-phenyl)-pyridin-2-yl]-(4-pyrrolidin-1-yl-piperidin-1-yl)-methanone; 5-Chloro-6-(4-pyrrolidin-1-yl-piperidine-1-carbonyl)-3-(3-trifluoromethyl-phenyl)-1H-pyridin-2-one (tautomers)] | 41
11 | Cc1cc(-c2cccc(C(F)(F)F)c2)c(-c2cncnc2)nc1C(=O)N1CCC(N2CCCC2)CC1 [Example 17, [3-Methyl-6-pyrimidin-5-yl-5-(3-trifluoromethyl-phenyl)-pyridin-2-yl]-(4-pyrrolidin-1-yl-piperidin-1-yl)-methanone] | 8.7
12 | COc1ccc(C(F)(F)F)cc1-c1cnc(C(=O)N2CCC(N3CCCC3)CC2)c(C)c1 [Example 33, [5-(2-Methoxy-5-trifluoromethyl-phenyl)-3-methyl-pyridin-2-yl]-(4-pyrrolidin-1-yl-piperidin-1-yl)-methanone] | 16
13 | C#Cc1nc(C(=O)N2CCC(N3CCCC3)CC2)c(C)cc1-c1cccc(C(F)(F)F)c1 [Example 24, [6-Ethynyl-3-methyl-5-(3-trifluoromethyl-phenyl)-pyridin-2-yl]-(4-pyrrolidin-1-yl-piperidin-1-yl)-methanone] | 4.8
14 | Cc1cc(-c2cccc(C(F)(F)F)c2)c(-c2cccnc2)nc1C(=O)N1CCC(N2CCCC2)CC1 [Example 16, [5-Methyl-3-(3-trifluoromethyl-phenyl)-[2,3′]bipyridinyl-6-yl]-(4-pyrrolidin-1-yl-piperidin-1-yl)-methanone] | 4.2
15 | Cc1cc(-c2cccc(C(F)(F)F)c2)c(S)nc1C(=O)N1CCC(N2CCCC2)CC1 [Example 64, [6-Mercapto-3-methyl-5-(3-trifluoromethyl-phenyl)-pyridin-2-yl]-(4-pyrrolidin-1-yl-piperidin-1-yl)-methanone; [3-Methyl-6-thioxo-5-(3-trifluoromethyl-phenyl)-1,6-dihydro-pyridin-2-yl]-(4-pyrrolidin-1-yl-piperidin-1-yl)-methanone (tautomers)] | 300

More lines, in order of falling IC50, values ahead:

Row | IC50 [nM] | Compound
16 | 250 | O=C(c1ncc(-c2cccc(C(F)(F)F)c2)cc1-c1cccc(C(F)(F)F)c1)N1CCC(N2CCCC2)CC1 [Example 15, [3,5-Bis-(3-trifluoromethyl-phenyl)-pyridin-2-yl]-(4-pyrrolidin-1-yl-piperidin-1-yl)-methanone]
17 | 250 | Cc1cc(-c2ccc(Cl)c(Cl)c2)cnc1C(=O)N1CCC(N2CCCC2)CC1 [Example 28, [5-(3,4-Dichloro-phenyl)-3-methyl-pyridin-2-yl]-(4-pyrrolidin-1-yl-piperidin-1-yl)-methanone]
18 | 210 | Cc1cc(-c2cccc(C(F)(F)F)c2)c(C(=O)NC2CCN(C(=O)OC(C)(C)C)CC2)nc1C(=O)N1CCC(N2CCCC2)CC1 [Example 57, 4-{[5-Methyl-6-(4-pyrrolidin-1-yl-piperidine-1-carbonyl)-3-(3-trifluoromethyl-phenyl)-pyridine-2-carbonyl]-amino}-piperidine-1-carboxylic acid tert-butyl ester]
19 | 190 | CNC(=O)c1nc(C(=O)N2CCC(N3CCCC3)CC2)c(C)cc1-c1cccc(C(F)(F)F)c1 [Example 58, 5-Methyl-6-(4-pyrrolidin-1-yl-piperidine-1-carbonyl)-3-(3-trifluoromethyl-phenyl)-pyridine-2-carboxylic acid methylamide]
20 | 67 | Cc1cc(-c2cccc(C(F)(F)F)c2)c(NCCN)nc1C(=O)N1CCC(N2CCCC2)CC1 [Example 26, [6-(2-Amino-ethylamino)-3-methyl-5-(3-trifluoromethyl-phenyl)-pyridin-2-yl]-(4-pyrrolidin-1-yl-piperidin-1-yl)-methanone]
21 | 21 | Cc1cc(-c2cccc(C(F)(F)F)c2)cnc1C(=O)N1CCC(N2CCC[C@H]2CO)CC1 [Example 5, [4-((S)-2-Hydroxymethyl-pyrrolidin-1-yl)-piperidin-1-yl]-[3-methyl-5-(3-trifluoromethyl-phenyl)-pyridin-2-yl]-methanone]
22 | 16 | Cc1cc(-c2cccc(C(F)(F)F)c2)c(-c2ccc(O)nc2)nc1C(=O)N1CCC(N2CCCC2)CC1 [Example 41, [6′-Hydroxy-5-methyl-3-(3-trifluoromethyl-phenyl)-[2,3′]bipyridinyl-6-yl]-(4-pyrrolidin-1-yl-piperidin-1-yl)-methanone]
23 | 12 | Cc1cc(-c2cccc(C(F)(F)F)c2)c(-c2cn[nH]c2)nc1C(=O)N1CCC(N2CCCC2)CC1 [Example 48, [3-Methyl-6-(1H-pyrazol-4-yl)-5-(3-trifluoromethyl-phenyl)-pyridin-2-yl]-(4-pyrrolidin-1-yl-piperidin-1-yl)-methanone]
24 | 6.4 | Cc1cc(-c2cccc(C(F)(F)F)c2)c(O)nc1C(=O)N1CCC(N2CCCC2)CC1 [Example 9, [6-Hydroxy-3-methyl-5-(3-trifluoromethyl-phenyl)-pyridin-2-yl]-(4-pyrrolidin-1-yl-piperidin-1-yl)-methanone; 5-Methyl-6-(4-pyrrolidin-1-yl-piperidine-1-carbonyl)-3-(3-trifluoromethyl-phenyl)-1H-pyridin-2-one (tautomers)]
25 | 5.5 | Cc1cc(-c2cccc(C(F)(F)F)c2)c(-c2cnccn2)nc1C(=O)N1CCC(N2CCCC2)CC1 [Example 51, [3-Methyl-6-pyrazin-2-yl-5-(3-trifluoromethyl-phenyl)-pyridin-2-yl]-(4-pyrrolidin-1-yl-piperidin-1-yl)-methanone]
26 | 4 | Cc1cc(-c2cccc(C(F)(F)F)c2)c(Cl)nc1C(=O)N1CCC(N2CCCC2)CC1 [Example 3, [6-Chloro-3-methyl-5-(3-trifluoromethyl-phenyl)-pyridin-2-yl]-(4-pyrrolidin-1-yl-piperidin-1-yl)-methanone]
